This assay deals with IGF1R (Homo sapiens, UniProt P08069). Description: Cellular IGF-1R assay: inhibition of IGF1R phosphorylation in transduced Hek293 cells, capture ELISA (MSD). Format: cell-based. Also noted: Hek293 cells transduced with the corresponding receptors; expressed in transfected cells; host or cells: Hek293 (Hek293-IGF1R). As to the method:
In this assay the activity of the compounds of the invention against Insulin-like growth factor I (IGF-1) induced autophosphorylation of the IGF-IR is determined. The assay is conducted as follows: Compound-mediated inhibition of IGF1R and INSR phosphorylation in Hek293 cells transduced with the corresponding receptors is assessed in a capture ELISA format using the MSD (Meso Scale Discovery) platform. Briefly, 30′000 cells washed and diluted in starvation medium (DMEM high glucose supplemented with 0.1% BSA) are seeded in 90 μL per well into 96-well plates pre-coated with poly-D-lysine (0.1 mg/mL in PBS/0). After 24 h incubation at 37° C. and 5% CO2, dose-response effects are determined with 3-fold serial compound dilutions, starting at 10 μM. The final vehicle concentration is 0.1% DMSO in all wells. Following pre-incubation with compounds for 1 h, receptor phosphorylation is triggered by a 10 min exposure to 1.0 ng/μL IGF for Hek293-IGF1R cells, and 5.0 ng/μL insulin for Hek293-InsR cells. Cell lysis is achieved by addition of 80 μL MSD lysis buffer per aspirated well, incubation on ice for 20 min, and a freeze-thaw cycle. Target phosphorylation is then assessed by transferring volumes corresponding to approx. 6 μg Hek293-IGF1R or 0.6 μg Hek293-InsR lysates to MSD assay plates pre-coated with total-IGF1R or total-InsR Abs, respectively. After incubation for 2 h at rt, wells are exposed for 1 hr to a rabbit monoclonal antibody (CST #3024, 1:1000) detecting pIGF1R(Tyr1135/1136) as well as pINSR(Tyr1150/1151). Immune complexes are detected by a SULFO-Tag™-coupled anti-rabbit IgG antibody in the presence of 150 μL MSD read-buffer. Light emission at 620 nm triggered by application of electric current is recorded on a MSD SectorImager 6000. Acquired raw data (mean Ru-ECL units) are processed in an Excel analysis template. The plate blank (MSD lysis buffer) is subtracted from all data points. The effect of a particular test compound concentration on receptor phosphorylation is expressed relative to the window defined by ligand-stimulated vs unstimulated control cells (set as 100%). IC50 values [nM] are determined using 4-parametric curve-fitting (XLfit software, V4.3.2). Alternatively, the assay can be conducted with a slightly different format; Compound-mediated inhibition of IGF-1R and InsR phosphorylation in HEK293 cells overexpressing the corresponding receptors were assessed by quantitative Western blot using an Odyssey infrared imager as readout.
Compound-mediated inhibition of IGF1R and INSR phosphorylation in Hek293 cells transduced with the corresponding receptors is assessed in a capture ELISA format using the MSD (Meso Scale Discovery) platform. Briefly, 30′000 cells washed and diluted in starvation medium (DMEM high glucose supplemented with 0.1% BSA) are seeded in 90 μL per well into 96-well plates pre-coated with poly-D-lysine (0.1 mg/mL in PBS/O). After 24 h incubation at 37° C. and 5% CO2, dose-response effects are determined with 3-fold serial compound dilutions, starting at 10 μM. The final vehicle concentration is 0.1% DMSO in all wells. Following pre-incubation with compounds for 1 h, receptor phosphorylation is triggered by a 10 min exposure to 1.0 ng/μL IGF for Hek293-IGF1R cells, and 5.0 ng/μL insulin for Hek293-InsR cells. Cell lysis is achieved by addition of 80 μL MSD lysis buffer per aspirated well, incubation on ice for 20 min, and a freeze-thaw cycle. Target phosphorylation is then assessed by transferring volumes corresponding to approx. 6 μg Hek293-IGF1R or 0.6 μg Hek293-lnsR lysates to MSD assay plates pre-coated with total-IGF1R or total-lnsR Abs, respectively. After incubation for 2 h at rt, wells are exposed for 1 hr to a rabbit monoclonal antibody (CST #3024, 1:1000) detecting pIGF1R(Tyr1135/1136) as well as pINSR(Tyr1150/1151). Immune complexes are detected by a SULFO-Tag™-coupled anti-rabbit IgG antibody in the presence of 150 μL MSD read-buffer. […]

This passage reports IC50 results from US20120289501A1, “Benzene-fused 6-membered oxygen-containing heterocyclic derivatives of bicyclic heteroaryls” (NOVARTIS AG, priority 2009, published 2012).

Chain of IGF1R (P08069 31-1367): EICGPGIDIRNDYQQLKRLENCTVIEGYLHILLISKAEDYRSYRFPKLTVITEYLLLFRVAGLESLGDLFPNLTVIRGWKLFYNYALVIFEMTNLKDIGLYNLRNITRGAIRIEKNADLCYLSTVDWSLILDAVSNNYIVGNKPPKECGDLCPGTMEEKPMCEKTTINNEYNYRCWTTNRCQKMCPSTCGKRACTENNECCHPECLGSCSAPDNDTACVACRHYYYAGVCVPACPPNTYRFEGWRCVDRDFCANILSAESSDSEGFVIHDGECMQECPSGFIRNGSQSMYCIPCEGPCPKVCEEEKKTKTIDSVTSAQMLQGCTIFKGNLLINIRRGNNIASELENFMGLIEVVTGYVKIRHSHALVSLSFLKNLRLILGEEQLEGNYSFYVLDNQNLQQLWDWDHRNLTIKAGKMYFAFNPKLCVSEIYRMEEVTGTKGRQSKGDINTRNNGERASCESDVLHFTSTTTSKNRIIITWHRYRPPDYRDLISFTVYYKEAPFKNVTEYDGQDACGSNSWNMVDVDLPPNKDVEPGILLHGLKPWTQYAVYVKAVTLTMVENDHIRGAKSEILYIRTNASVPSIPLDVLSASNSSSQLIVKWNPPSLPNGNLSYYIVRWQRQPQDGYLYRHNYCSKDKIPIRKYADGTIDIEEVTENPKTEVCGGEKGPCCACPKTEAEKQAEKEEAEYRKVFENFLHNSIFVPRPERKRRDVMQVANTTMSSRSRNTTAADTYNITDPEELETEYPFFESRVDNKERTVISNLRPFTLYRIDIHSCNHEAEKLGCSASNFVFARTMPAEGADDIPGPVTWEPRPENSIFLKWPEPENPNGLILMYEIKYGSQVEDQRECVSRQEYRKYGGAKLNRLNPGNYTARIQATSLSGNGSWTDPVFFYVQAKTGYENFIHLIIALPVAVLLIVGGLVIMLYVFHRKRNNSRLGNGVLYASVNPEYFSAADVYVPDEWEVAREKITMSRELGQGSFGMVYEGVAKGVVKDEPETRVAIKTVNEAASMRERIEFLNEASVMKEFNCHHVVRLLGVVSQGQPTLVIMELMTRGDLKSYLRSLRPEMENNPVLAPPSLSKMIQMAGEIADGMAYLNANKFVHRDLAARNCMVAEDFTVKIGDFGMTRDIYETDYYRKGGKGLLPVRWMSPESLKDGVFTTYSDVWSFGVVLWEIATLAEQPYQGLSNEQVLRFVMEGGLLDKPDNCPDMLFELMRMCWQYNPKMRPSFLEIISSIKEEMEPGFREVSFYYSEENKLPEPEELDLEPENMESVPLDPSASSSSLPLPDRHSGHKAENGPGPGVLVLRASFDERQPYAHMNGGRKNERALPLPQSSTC

Compound `NC(=O)[C@@H]1CCCN1C[C@H]1C[C@@H](c2nc(-c3ccc4c(c3)OC(c3ccccc3)CC4)c3c(N)nccn32)C1` (mixture of isomers) [Example 4, 1-{cis-3,8-Amino-1-((R)-2-phenyl-chroman-7-yl)-imidazo[1,5-a]pyrazin-3-yl]-cyclobutylmethyl}-(S)-pyrrolidine-2-carboxylic acid amide and 1-{cis-3-[8-amino-1-((S)-2-phenyl-chroman-7-yl)-imidazo[1,5-a]pyrazin-3-yl]-cyclobutylmethyl}-(S)-pyrrolidine-2-carboxylic acid amide] had an IC50 of 346 nM. As to `Nc1ncnc2c1c(-c1ccc3c(c1)OC(c1ccccc1)CC3)cn2[C@H]1C[C@@H](CN2CCC[C@H]2CO)C1` (mixture of isomers) [Example 14, (1-{cis-3-[4-Amino-5-((R)-2-phenyl-chroman-7-yl)-pyrrolo[2,3-d]pyrimidin-7-yl]-cyclobutylmethyl}-(S)-pyrrolidin-2-yl)-methanol and (1-{cis-3-[4-amino-5-[((S)-2-phenyl-chroman-7-yl)-pyrrolo[2,3-d]pyrimidin-7-yl]-cyclobutylmethyl}-(S)-pyrrolidin-2-yl)-methanol], the IC50 is less than 5 nM. Under `Nc1ncnc2c1c(-c1ccc3c(c1)OC(C1CCCO1)CC3)cn2C1CC(O)(CO)C1` (mixture of isomers) [Example 29, (E)-3-{4-Amino-5-[2-(tetrahydro-furan-2-yl)-chroman-7-yl]-pyrrolo[2,3-d]pyrimidin-7-yl}-1-hydroxymethyl-cyclobutanol] stands 50 nM.

Regarding `Nc1ncnc2c1c(-c1ccc3c(c1)OC(C1CCCO1)CC3)cn2C1CC(CN2CC3CC2CS3(=O)=O)C1` (mixture of isomers) [Example 66, 7-[cis-3-((S,S)-2,2-dioxo-2λ6-thia-5-aza-bicyclo[2,2,1]hept-5-ylmethyl)-cyclobutyl]-5-[2-trans-(tetrahydro-furan-2-yl-chroman-7-yl)-7H-pyrrolo[2,3-d]pyrimidin-4-ylamine], the IC50 worked out at 24 nM.

Compound `Nc1ncnc2c1c(-c1ccc3c(c1)OC(C1CCCO1)CC3)cn2C1CC(CN2CC3CC2CS3(=O)=O)C1` (mixture of isomers) [Example 67, 7-[cis-3-((S,S)-2,2-dioxo-2λ6-thia-5-aza-bicyclo[2,2,1]hept-5-ylmethyl)-cyclobutyl]-5-[2-cis-(tetrahydro-furan-2-yl-chroman-7-yl)-7H-pyrrolo[2,3-d]pyrimidin-4-ylamine] returned an IC50 of 17 nM.

`Nc1ncnc2c1c(-c1ccc3c(c1)OC(c1ccccc1)CC3)cn2[C@H]1C[C@@H](CO)C1` (mixture of isomers) [Example 1, (R,S)-{cis-3-[4-Amino-5-(2-phenyl-chroman-7-yl)-pyrrolo[2,3-d]pyrimidin-7-yl]-cyclobutyl}-methanol] showed an IC50 of 11 to 22 nM. Consider `Nc1ncnc2c1c(-c1ccc3c(c1)OC(c1ccccc1)CC3)cn2[C@H]1C[C@H](CO)C1` (mixture of isomers) [Example 2, (R,S)-{Trans-3-[4-amino-5-(2-phenyl-chroman-7-yl)-pyrrolo[2,3-d]pyrimidin-7-yl]-cyclobutyl}-methanol], for which the IC50 lay within 30 to 103 nM. `Nc1nccn2c1c(-c1ccc3c(c1)OC(c1ccccc1)CC3)nc2[C@H]1C[C@@H](CO)C1` (mixture of isomers) [Example 3, (R,S)-{cis-3-[8-Amino-1-(2-phenyl-chroman-7-yl)-imidazo[1,5-a]pyrazin-3-yl]-cyclobutyl}-methanol] registered an IC50 of 76 nM. Under `Nc1ncnc2c1c(-c1ccc3c(c1)OC(c1ccccc1)CC3)cn2[C@H]1C[C@@H](CN2CCS(=O)(=O)CC2)C1` (mixture of isomers) [Example 6, (R,S)-7-[cis-3-(1,1-Dioxo-thiomorpholin-4-ylmethyl)-cyclobutyl]-5-(2-phenyl-chroman-7-yl)-7H-pyrrolo[2,3-d]pyrimidin-4-ylamine] stands 3 nM; under `Cc1nccn1C[C@H]1C[C@@H](c2nc(-c3ccc4c(c3)OC(c3ccccc3)CC4)c3c(N)nccn32)C1` (mixture of isomers) [Example 7, (R,S)-3-[cis-3-(2-Methyl-imidazol-1-ylmethyl)-cyclobutyl]-1-(2-phenyl-chroman-7-yl)-imidazo[1,5-a]pyrazin-8-ylamine], 26 nM. Under `Nc1ncnc2c1c(-c1ccc3c(c1)OC(c1ccccc1)CC3)cn2[C@H]1C[C@@](O)(CO)C1` (mixture of isomers) [Example 8, (R,S)-(E)-3-[4-Amino-5-(2-phenyl-chroman-7-yl)-pyrrolo[2,3-d]pyrimidin-7-yl]-1-hydroxymethyl-cyclobutanol] stands 95 nM; under `Nc1ncnc2c1c(-c1ccc3c(c1)OC(c1ccccc1)CC3)cn2[C@H]1C[C@](O)(CO)C1` (mixture of isomers) [Example 9, (R,S)—(Z)-3-[4-amino-5-(2-phenyl-chroman-7-yl)-pyrrolo[2,3-d]pyrimidin-7-yl]-1-hydroxymethyl-cyclobutanol], 158 nM; under `NC[C@H]1C[C@@H](n2cc(-c3ccc4c(c3)OC(c3ccccc3)CC4)c3c(N)ncnc32)C1` (mixture of isomers) [Example 13, (R,S)-7-(cis-3-Aminomethyl-cyclobutyl)-5-(2-phenyl-chroman-7-yl)-7H-pyrrolo[2,3-d]pyrimidin-4-ylamine], 39 nM. In turn, `Nc1ncnc2c1c(-c1ccc3c(c1)OC(c1ccccc1)CC3)cn2[C@H]1C[C@@H](Cn2ccnc2CO)C1` (mixture of isomers) [Example 18, (R,S)-(1-{cis-3-[4-Amino-5-(2-phenyl-chroman-7-yl)-pyrrolo[2,3-d]pyrimidin-7-yl]-cyclobutylmethyl}-1H-imidazol-2-yl)-methanol] displayed a 50% inhibitory concentration (IC50) of 14 nM.

On to `Nc1ncnc2c1c(-c1ccc3c(c1)OC(c1ccccc1)C=C3)cn2[C@H]1C[C@@H](CO)C1` (mixture of isomers) [Example 23, (R,S)-{cis-3-[4-Amino-5-(2-phenyl-2H-chromen-7-yl)-pyrrolo[2,3-d]pyrimidin-7-yl]-cyclobutyl}-methanol], for which half-maximal inhibition (IC50) required 12 nM.

For the compound `Nc1ncnc2c1c(-c1ccc3c(c1)OC(c1ccccc1)CC3)cn2[C@H]1C[C@@H](CN2CCNC(=O)C2)C1` (mixture of isomers) [Example 28, (R,S)-4-{3-[4-amino-5-(2-phenyl-chroman-7-yl)-pyrrolo[2,3-d]pyrimidin-7-yl]-cyclobutylmethyl}-piperazin-2-one], the half-inhibitory concentration (IC50) worked out at 34 nM. Under `Nc1ncnc2c1c(-c1ccc3c(c1)OC(c1ccccc1)CC3)cn2[C@H]1C[C@@H](CN2[C@@H]3CC[C@H]2C[C@H](O)C3)C1` (mixture of isomers) [Example 36, (R,S)-8-{cis-3-[4-Amino-5-(2-phenyl-chroman-7-yl)-pyrrolo[2,3-d]pyrimidin-7-yl]-cyclobutylmethyl}-8-aza-bicyclo[3.2.1]octan-3-ol] stands 87 nM; under `Nc1ncnc2c1c(-c1ccc3c(c1)OC(c1ccccc1)CC3)cn2[C@H]1CC[C@@H](NC(=O)C2CC2)CC1` (mixture of isomers) [Example 51, (±)-N-(cis-4-(4-amino-5-(2-phenylchroman-7-yl)-7H-pyrrolo[2,3-d]pyrimidin-7-yl)cyclohexyl)cyclopropanecarboxamide], 136 nM. `CC(C)C(=O)N[C@H]1CC[C@@H](n2cc(-c3ccc4c(c3)OC(c3ccccc3)CC4)c3c(N)ncnc32)CC1` (mixture of isomers) [Example 52, (±)-N-(cis-4-(4-amino-5-(2-phenylchroman-7-yl)-7H-pyrrolo[2,3-d]pyrimidin-7-yl)cyclohexyl)isobutyramide] displayed a 50% inhibitory concentration (IC50) of 99 nM.
